How the values were obtained:
[1] = test system: wild-type nontransfected HL-60 cells; assay: Ca2+ mobilization in wild-type nontransfected HL-60 cells; details: control cells which do not express FPRs
human neutrophils [2] = assay: Chemotaxis assay in human neutrophils; assay type: cell-based; details: Neutrophil, read-out: EC50 Chemotaxis
human neutrophils [3] = assay: Ca2+ mobilization in human neutrophils; assay type: cell-based; details: Neutrophil, read-out: EC50 Ca2+ mobilization

COc1cccc(Cc2cc(C)nn(CC(=O)Nc3ccc(Br)cc3)c2=O)c1 [14a, N-(4-Bromophenyl)-2-[5-(3-methoxybenzyl)-3-methyl-6-oxo-6H-pyridazin-1-yl]-acetamide]
Ca2+ flux response in wild-type (nontransfected, undifferentiated) HL-60 cells [1]: no response was observed

COc1cccc(Cc2cc(C)nn(CC(=O)Nc3ccc4c(c3)OCO4)c2=O)c1 [14m, N-Benzo[1,3]dioxol-5-yl-2-[5-(3-methoxybenzyl)-3-methyl-6-oxo-6H-pyridazin-1-yl]-acetamide]
EC50 (human neutrophils [2]): 1200 ± 600 nM

COc1cccc(Cc2cc(C)nn(CC(=O)Nc3ccc([N+](=O)[O-])cc3)c2=O)c1 [14p, 2-[5-(3-Methoxybenzyl)-3-methyl-6-oxo-6H-pyridazin-1-yl]-N-(4-nitrophenyl)-acetamide]
EC50 (human neutrophils [3]): 21700 ± 4200 nM
EC50 (human neutrophils [2]): 1900 ± 600 nM
